Test results taken from DBAASP.
Converted amounts (≈) assume the structure as drawn. Blank lines part the entries; values can stand above or below the compound they belong to.

Assays:
Assay in all cases: ≥ marks a high value that may be exact or a test limit, other limits are often not marked, values filed in µg/mL are converted to µM
[1] = system: Candida albicans ATCC 90028
[2] = system: Candida krusei ATCC 6258
[3] = system: Candida parapsilosis ATCC 22019
[4] = system: Cryptococcus neoformans ATCC 90012
[5] = system: Escherichia coli ATCC 25922
[6] = system: Pseudomonas aeruginosa ATCC 27853
[7] = system: Botrytis cinerea 101
[8] = system: Candida albicans ATCC 10231
[9] = system: Corynebacterium glutamicum ATCC 13032
[10] = system: Penicillium roqueforti
[11] = system: Saccharomyces cerevisiae
[12] = system: Staphylococcus aureus ATCC 9144
[13] = system: Vibrio anguillarum FT1801
[14] = system: Bacillus subtilis KCTC 1918
[15] = system: Candida albicans KCTC 7270
[16] = system: Escherichia coli KCTC 1682
[17] = system: Pseudomonas aeruginosa KCTC 1637
[18] = system: Saccharomyces cerevisiae KCTC 7296
[19] = system: Salmonella typhimurium KCTC 1926
[20] = system: Staphylococcus aureus KCTC 1621
[21] = system: Staphylococcus epidermidis KCTC 1917
[22] = system: Trichosporon beigelii KCTC 7707
[23] = system: Acinetobacter baumannii Ab1408
[24] = system: Acinetobacter baumannii Ab5753
[25] = system: Acinetobacter baumannii Ab5755
[26] = system: Acinetobacter baumannii NM109
[27] = system: Acinetobacter baumannii NM124
[28] = system: Acinetobacter baumannii NM35
[29] = system: Acinetobacter baumannii NM75
[30] = system: Acinetobacter baumannii NM8
[31] = system: Acinetobacter baumannii
[32] = system: Escherichia coli ATCC 25726
[33] = system: Escherichia coli Ec513
[34] = system: Pseudomonas aeruginosa Pa1409
[35] = system: Pseudomonas aeruginosa Pa4216
[36] = system: Staphylococcus aureus ATCC 25923
[37] = system: Staphylococcus aureus Sa1390
[38] = system: Enterococcus faecalis ATCC 29212
[39] = system: Enterococcus faecium
[40] = system: Staphylococcus aureus K35
[41] = system: Staphylococcus aureus K52
[42] = system: Erwinia amylovora PMV 6076
[43] = system: Pseudomonas syringae pv. syringae EPS 94
[44] = system: Xanthomonas campestris pv. Vesicatoria 2133-2

MIC [1]: 16 µM (≈ 36.9 µg/mL)
MIC [2]: 31 µM (≈ 71.4 µg/mL)
MIC [3]: 31 µM (≈ 71.4 µg/mL)
MIC [4]: 31 µM (≈ 71.4 µg/mL)
MIC [5]: 8 µM (≈ 18.4 µg/mL)
MIC [6]: 32 µM (≈ 73.8 µg/mL)
SMILES: CC[C@H](C)[C@H](NC(=O)[C@H](Cc1ccccc1)NC(=O)[C@H](CC(N)=O)NC(=O)[C@H](CCCCN)NC(=O)[C@H](C)NC(=O)[C@@H](NC(=O)[C@H](CC(N)=O)NC(=O)[C@H](Cc1ccccc1)NC(=O)[C@H](C)NC(=O)[C@H](C)NC(=O)[C@H](CCCCN)NC(=O)CNC(=O)[C@H](CCCCN)NC(=O)[C@H](CCCCN)NC(=O)[C@H](CCCCN)NC(=O)[C@H](C)NC(=O)[C@@H](NC(=O)[C@H](CC(=O)O)NC(=O)[C@H](CC(C)C)NC(=O)[C@H](Cc1c[nH]c2ccccc12)NC(=O)CN)C(C)C)C(C)C)C(N)=O [GWLDVAKKKGKAAFNVAKNFI]

MIC [7]: ≥ 100 µM
MIC [8]: > 100 µM
MIC [9]: ≥ 100 µM
MIC [5]: > 100 µM
MIC [10]: ≥ 100 µM
MIC [11]: ≥ 100 µM
MIC [12]: ≥ 100 µM
MIC [13]: ≥ 100 µM
SMILES: CC(C)C[C@H](NC(=O)[C@H](C)NC(=O)[C@H](Cc1cnc[nH]1)NC(=O)[C@H](C)NC(=O)[C@H](C)NC(=O)[C@H](C)NC(=O)[C@H](CS)NC(=O)[C@H](C)NC(=O)CNC(=O)[C@H](CCCN=C(N)N)NC(=O)[C@H](CC(C)C)NC(=O)[C@@H](N)CC(=O)O)C(=O)O [DLRGACAAAHAL]

MIC [14]: 1.56 µM (≈ 2.69 µg/mL)
MIC [15]: 17.7 µM (≈ 30.4 µg/mL)
MIC [16]: 3.12 µM (≈ 5.38 µg/mL)
MIC [17]: 1.56 µM (≈ 2.69 µg/mL)
MIC [18]: 6.25 µM (≈ 10.8 µg/mL)
MIC [19]: 0.78 µM (≈ 1.34 µg/mL)
MIC [20]: 1.56 µM (≈ 2.69 µg/mL)
MIC [21]: 3.12 µM (≈ 5.38 µg/mL)
MIC [22]: 1.56 µM (≈ 2.69 µg/mL)
SMILES: CC[C@H](C)[C@H](NC(=O)[C@H](CCCCN)NC(=O)[C@H](CO)NC(=O)[C@H](Cc1ccccc1)NC(=O)[C@H](CC(C)C)NC(=O)[C@H](CCCCN)NC(=O)[C@H](CCC(=O)O)NC(=O)[C@H](CC(C)C)NC(=O)[C@H](CCCN=C(N)N)NC(=O)[C@H](CCCCN)NC(=O)[C@H](Cc1ccccc1)NC(=O)[C@H](Cc1c[nH]c2ccccc12)NC(=O)[C@@H](N)CCCCN)C(N)=O [KWFKRLEKLFSKI]

MIC [23]: 6.86 µM (≈ 16 µg/mL)
MIC [24]: 3.43 µM (≈ 8 µg/mL)
MIC [25]: 1.71 µM (≈ 4 µg/mL)
MIC [26]: 1.5 µM (≈ 3.5 µg/mL)
MIC [27]: 1.5 µM (≈ 3.5 µg/mL)
MIC [28]: 3 µM (≈ 7 µg/mL)
MIC [29]: 3 µM (≈ 7 µg/mL)
MIC [30]: 3 µM (≈ 7 µg/mL)
MIC [31]: 6.25 µM (≈ 14.6 µg/mL)
MIC [1]: 6 µM (≈ 14 µg/mL)
MIC [32]: 6.25 µM (≈ 14.6 µg/mL)
MIC [33]: 3.43 µM (≈ 8 µg/mL)
MIC [34]: 13.7 µM (≈ 32 µg/mL)
MIC [35]: 13.7 µM (≈ 32 µg/mL)
MIC [36]: 12.5 µM (≈ 29.1 µg/mL)
MIC [37]: 6.86 µM (≈ 16 µg/mL)
SMILES: CC[C@H](C)[C@H](NC(=O)CN)C(=O)N[C@@H](Cc1c[nH]c2ccccc12)C(=O)N[C@@H](CCCCN)C(=O)N[C@H](C(=O)N[C@H](C(=O)N[C@@H](CCCCN)C(=O)N[C@@H](CO)C(=O)N[C@@H](CCSC)C(=O)NCC(=O)N[C@@H](CCCCN)C(=O)N[C@H](C(=O)N[C@@H](Cc1ccccc1)C(=O)N[C@@H](C)C(=O)NCC(=O)N[C@@H](CCCCN)C(=O)N[C@H](C(=O)N[C@@H](CC(C)C)C(=O)N[C@@H](CCC(N)=O)C(=O)N[C@@H](CC(N)=O)C(=O)N[C@@H](CC(C)C)C(N)=O)[C@@H](C)CC)C(C)C)[C@@H](C)CC)[C@@H](C)O [GIWKTIKSMGKVFAGKILQNL]

MIC [38]: > 168 µM
MIC [39]: ≥ 99.8 µM
MIC [36]: > 168 µM
MIC [40]: ≥ 99.8 µM
MIC [41]: ≥ 99.8 µM
SMILES: CC(C)C[C@H](NC(=O)[C@H](C)NC(=O)CNC(=O)[C@H](CO)NC(=O)[C@H](CC(C)C)NC(=O)[C@@H](NC(=O)[C@H](CCCN=C(N)N)NC(=O)CNC(=O)[C@H](C)NC(=O)[C@H](CC(C)C)NC(=O)[C@@H]1CCCN1C(=O)[C@H](CC(C)C)NC(=O)[C@@H](N)Cc1ccccc1)C(C)C)C(N)=O [FLPLAGRVLSGAL]

MIC [42]: 3.54 µM (≈ 6.74 µg/mL)
MIC [43]: 3.54 µM (≈ 6.74 µg/mL)
MIC [44]: 1.77 µM (≈ 3.37 µg/mL)
SMILES: CC[C@H](C)[C@H](NC(=O)[C@H](CCCCN)NC(=O)[C@H](CCCCN)NC(=O)[C@H](Cc1ccccc1)NC(=O)[C@H](CC(C)C)NC(=O)[C@H](CCCCN)NC(=O)[C@@H](N)CCCCN)C(=O)N[C@@H](CC(C)C)C(=O)N[C@@H](CCCCN)C(=O)N[C@@H](Cc1ccc(O)cc1)C(=O)N[C@@H](CC(C)C)C(=O)N[C@@H](CCCCN)C(=O)N[C@@H](CC(=O)O)C(=O)N[C@@H](CCC(=O)O)C(=O)N[C@@H](CC(C)C)C(=O)O [KKLFKKILKYLKDEL]
